According to patent US20100069632A1, “SALTS OF PYRROLOPYRIMIDINONE DERIVATIVES AND PROCESS FOR PREPARING THE SAME” (SK CHEMICALS CO., LTD, priority 2006, published 2010):
Structures can show the parent of a compound that is named as a salt.

What was measured:
[1] = Water and atmospheric (storage) stability: total impurities by liquid chromatography after storage; format: physicochemical; details: for Storage stability compared with the SK-3530 dihydrochloride salt: summary of Tables 1 to 3
Description: This test is for confirming the storage stability of SK-3530 salt.
A sufficient stability is required to process a drug into a particular medication form. For instance, preparation into tablet or capsule requires atmospheric stability and preparation into injection may require water stability.
The following Table 1 (25° C., 75% humidity), Table 2 (40° C., 60% humidity) and Table 3 (50° C., 75% humidity) show the content of total impurities measured by liquid chromatography after storing dihydrochloride (2HCl), gentisate, maleate, citrate, fumarate and hemitartrate salts of SK-3530 for 1 week and 3 weeks.

[2] = Photostability test (UV and visible light), impurity content and color change; format: physicochemical; details: for Color change, Initial / Impurity content (%), Initial: photostability test; for Photostability against UV and visible light compared with the SK-3530 dihydrochloride salt: summary of Tables 4 and 5; for Color change, UV / Impurity content (%), UV: total UV radiation 200 W·h/m^2; for Color change, UV / Impurity content (%), UV / Color change, Visible / Impurity content (%), Visible: 25° C., 60% humidity; for Impurity content (%), UV / Impurity content (%), Visible: Petri dish; for Color change, Visible / Impurity content (%), Visible: total visible light radiation 1080 klux/m^2h
Description: The following Table 4 and Table 5 show the photostability test result for dihydrochloride salt (2HCl), gentisate, maleate, citrate, fumarate and hemitartrate salts of SK-3530. The total ultraviolet (UV) radiation was 200 W·h/m^2 and the total visible light radiation was 1080 klux/m^2h. Each salt was kept on a Petri dish under the condition of 25° C. and 60% humidity.

[3] = Thermal stability test at 105° C., impurity content and color change; format: physicochemical; details: for Impurity content (%), 3 hours / Color change, 3 hours / Impurity content (%), 48 hours / Color change, 48 hours: dryer at 105° C.; for Color change, 3 hours / Color change, 48 hours: macroscopic observation; for Thermal stability compared with the SK-3530 dihydrochloride salt: summary of Tables 6 and 7; for Color change, Initial / Impurity content (%), Initial: thermal stability test
Description: The following Table 6 and Table 7 show the thermal stability test result for dihydrochloride salt (2HCl), gentisate, maleate, citrate, fumarate and hemitartrate salts of SK-3530. Each salt was placed on a Petri dish and kept in a dryer at 105° C. Following macroscopic observation at 3 hours and 48 hours later, the content of impurities was measured with liquid chromatography.

[4] = Hygroscopicity; format: physicochemical; details: statement in words, no test described
[5] = Solubility; format: physicochemical; details: statement in words, no test described
[6] = target: PDE-5 (Homo sapiens, UniProt O76074); details: statement in words; cited from earlier work

| SMILES | Impurity content (%) at 25° C., 75% humidity, 1 week [1] | Impurity content (%) at 25° C., 75% humidity, 3 weeks [1] | Impurity content (%) at 25° C., 75% humidity, Initial [1] | Impurity content (%) at 40° C., 60% humidity, 1 week [1] | Impurity content (%) at 40° C., 60% humidity, 3 weeks [1] | Impurity content (%) at 40° C., 60% humidity, Initial [1] | Impurity content (%) at 50° C., 75% humidity, 1 week [1] | Impurity content (%) at 50° C., 75% humidity, 3 weeks [1] | Impurity content (%) at 50° C., 75% humidity, Initial [1] | Color change, Initial [2] | Impurity content (%), Initial [2] | Color change, UV [2] | Impurity content (%), UV [2] | Color change, Visible [2] | Impurity content (%), Visible [2] | Impurity content (%), 3 hours [3] | Color change, 3 hours [3] | Impurity content (%), 48 hours [3] | Color change, 48 hours [3] | Color change, Initial [3] | also measured |
| --- | --- | --- | --- | --- | --- | --- | --- | --- | --- | --- | --- | --- | --- | --- | --- | --- | --- | --- | --- | --- | --- |
| CCCOc1ccc(S(=O)(=O)N2CCN(CCO)CC2)cc1-c1nc2c(CCC)cn(CC)c2c(=O)[nH]1 [SK-3530 fumarate salt] | 0.02% | 0.03% | 0.02% | 0.02% | 0.05% | 0.02% | 0.02% | 0.05% | 0.02% | White | 0.02% | Pale yellow | 0.08% | White | 0.07% | 0.11% | White | 0.61% | White | White | Storage stability compared with the SK-3530 dihydrochloride salt [1]: much superior; Photostability against UV and visible light compared with the SK-3530 dihydrochloride salt [2]: much superior; Thermal stability compared with the SK-3530 dihydrochloride salt [3]: much superior; Impurity content (%), Initial [3]: 0.02%; Hygroscopicity [4]: non-hygroscopic |
| CCCOc1ccc(S(=O)(=O)N2CCN(CCO)CC2)cc1-c1nc2c(CCC)cn(CC)c2c(=O)[nH]1 [SK-3530 maleate salt] | 0.12% | 0.12% | 0.12% | 0.12% | 0.12% | 0.12% | 0.15% | 0.19% | 0.12% | White | 0.12% | White | 0.35% | White | 0.14% | 0.15% | White | 0.74% | White | White | Storage stability compared with the SK-3530 dihydrochloride salt [1]: much superior; Photostability against UV and visible light compared with the SK-3530 dihydrochloride salt [2]: much superior; Thermal stability compared with the SK-3530 dihydrochloride salt [3]: much superior; Impurity content (%), Initial [3]: 0.12%; Hygroscopicity [4]: non-hygroscopic |
| CCCOc1ccc(S(=O)(=O)N2CCN(CCO)CC2)cc1-c1nc2c(CCC)cn(CC)c2c(=O)[nH]1 [SK-3530 citrate salt] | 0.15% | 0.15% | 0.12% | 0.13% | 0.14% | 0.12% | 0.14% | 0.14% | 0.12% | White | 0.12% | White | 0.37% | White | 0.14% | 0.30% | White | 1.81% | White | White | Storage stability compared with the SK-3530 dihydrochloride salt [1]: much superior; Photostability against UV and visible light compared with the SK-3530 dihydrochloride salt [2]: much superior; Thermal stability compared with the SK-3530 dihydrochloride salt [3]: much superior; Impurity content (%), Initial [3]: 0.12%; Hygroscopicity [4]: non-hygroscopic |
| CCCOc1ccc(S(=O)(=O)N2CCN(CCO)CC2)cc1-c1nc2c(CCC)cn(CC)c2c(=O)[nH]1 [SK-3530 hemitartrate salt] | 0.09% | 0.13% | 0.07% | 0.10% | 0.14% | 0.07% | 0.11% | 0.13% | 0.07% | White | 0.07% | White | 0.52% | White | 0.21% | 0.14% | White | 0.70% | White | White | Storage stability compared with the SK-3530 dihydrochloride salt [1]: much superior; Photostability against UV and visible light compared with the SK-3530 dihydrochloride salt [2]: much superior; Thermal stability compared with the SK-3530 dihydrochloride salt [3]: much superior; Impurity content (%), Initial [3]: 0.07%; Hygroscopicity [4]: non-hygroscopic |
| CCCOc1ccc(S(=O)(=O)N2CCN(CCO)CC2)cc1-c1nc2c(CCC)cn(CC)c2c(=O)[nH]1 [SK-3530 gentisate salt] | 0.09% | 0.12% | 0.09% | 0.10% | 0.10% | 0.09% | 0.09% | 0.10% | 0.09% | White | 0.09% | Pale yellow | 0.36% | Pale yellow | 0.17% | 0.09% | White | 0.13% | White | White | Storage stability compared with the SK-3530 dihydrochloride salt [1]: much superior; Photostability against UV and visible light compared with the SK-3530 dihydrochloride salt [2]: much superior; Thermal stability compared with the SK-3530 dihydrochloride salt [3]: much superior; Impurity content (%), Initial [3]: 0.09%; Hygroscopicity [4]: non-hygroscopic |
| CCCOc1ccc(S(=O)(=O)N2CCN(CCO)CC2)cc1-c1nc2c(CCC)cn(CC)c2c(=O)[nH]1.Cl.Cl [SK-3530 dihydrochloride salt, reference compound] | 0.24% | 0.31% | 0.20% | 0.24% | 0.38% | 0.20% | 0.27% | 0.42% | 0.20% | White | 0.20% | Brown | 5.92% | Yellow | 1.37% | 3.06% | White | 14.37% | Yellow | White | Impurity content (%), Initial [3]: 0.20%; Solubility [5]: good solubility; Hygroscopicity [4]: hygroscopic |
| CCCOc1ccc(S(=O)(=O)N2CCN(CCO)CC2)cc1-c1nc2c(CCC)cn(CC)c2c(=O)[nH]1 [SK-3530, 5-ethyl-2-{5-[4-(2-hydroxyethyl)piperazin-1-ylsulfonyl]-2-n-propoxyphenyl}-7-n-propyl-I-3,5-dihydro-4H-pyrrolo[3,2-d]pyrimidin-4-one] | – | – | – | – | – | – | – | – | – | – | – | – | – | – | – | – | – | – | – | – | Selectivity for PDE-5 over other PDEs [6]: excellent selective inhibitor |
